Data from ChEMBL document CHEMBL1150826, “Antibacterial diterpenes from the roots of Salvia blepharochlaena” (2001).
In brackets after ≈: the same amount, converted by molar mass. Activity calls are given as the source filed them. The rule behind the calls is not given here.

Experiments:
[1] = tested on: Mycobacterium tuberculosis; test: Antimycobacterial activity against Mycobacterium tuberculosis by broth microdilution method; format: functional, organism-based
Bacillus subtilis [2] = test: Antimicrobial activity against Bacillus subtilis ATCC 6633 by disc-diffusion method; format: functional
Escherichia coli = test: Antimicrobial activity against Escherichia coli by disc-diffusion method; format: functional, organism-based
Proteus mirabilis = test: Antimicrobial activity against Proteus mirabilis by disc-diffusion method; format: functional, organism-based
Klebsiella pneumoniae = test: Antimicrobial activity against Klebsiella pneumoniae by disc-diffusion method; format: functional, organism-based
Pseudomonas aeruginosa = test: Antimicrobial activity against Pseudomonas aeruginosa by disc-diffusion method; format: functional, organism-based
Candida albicans = test: Antimicrobial activity against Candida albicans by disc-diffusion method; format: functional, organism-based
Bacillus subtilis [3] = test: Antimicrobial activity against Bacillus subtilis ATCC 6633 by tube dilution method; format: functional
Staphylococcus aureus [4] = test: Antimicrobial activity against Staphylococcus aureus ATCC 6538 by disc-diffusion method; format: functional
[5] = tested on: Staphylococcus epidermidis; test: Antimicrobial activity against Staphylococcus epidermidis ATCC 12228 by disc-diffusion method; format: functional
Enterococcus faecalis [6] = test: Antimicrobial activity against Enterococcus faecalis ATCC 29212 by disc-diffusion method; format: functional
Staphylococcus aureus [7] = test: Antimicrobial activity against Staphylococcus aureus ATCC 6538 by tube dilution method; format: functional
[8] = tested on: Staphylococcus epidermidis; test: Antimicrobial activity against Staphylococcus epidermidis ATCC 12228 by tube dilution method; format: functional
Enterococcus faecalis [9] = test: Antimicrobial activity against Enterococcus faecalis ATCC 29212 by tube dilution method; format: functional

In the case of COc1cc2c(ccc3c(C)c(C)ccc32)cc1C(C)C, the Activity [1] was “Active”.
In the case of COc1cc2c3c(ccc2c(C)c1C)C=C(C(C)C)C(=O)C3=O, the Activity [1] was “Active”.
In the case of COc1cc2c(cc1C(C)C)CC[C@H]1C(C)(C)CCC[C@]21C(=O)O, the “inhibition zone (IZ)” value (Bacillus subtilis [2]) was greater than 7 mm, the “inhibition zone (IZ)” value (Escherichia coli) was “inactive” and the “inhibition zone (IZ)” value (Proteus mirabilis) was “inactive”. The “inhibition zone (IZ)” value (Klebsiella pneumoniae) was “inactive”, the “inhibition zone (IZ)” value (Pseudomonas aeruginosa) was “inactive” and the “inhibition zone (IZ)” value (Candida albicans) was “inactive”. The MIC (Bacillus subtilis [3]) was 6.5 µg/mL (≈ 19.7 µM), the “inhibition zone (IZ)” value (Staphylococcus aureus [4]) was “inactive” and the “inhibition zone (IZ)” value [5] was “inactive”. The “inhibition zone (IZ)” value (Enterococcus faecalis [6]) was “inactive”.
Cc1c(O)cc2c3c(ccc2c1C)C=C(C(C)C)C(=O)C3=O was tested, and the Activity [1] was “Active”.
In the case of CC(C)c1cc2c(cc1O)[C@@]1(C)CCCC(C)(C)[C@@H]1CC2 [FERRUGINOL], the “inhibition zone (IZ)” value (Bacillus subtilis [2]) was greater than 7 mm, the MIC (Staphylococcus aureus [7]) was greater than 250 µg/mL and the MIC [8] was greater than 250 µg/mL. The MIC (Bacillus subtilis [3]) was greater than 250 µg/mL, the “inhibition zone (IZ)” value (Staphylococcus aureus [4]) was greater than 7 mm and the “inhibition zone (IZ)” value [5] was greater than 7 mm.
CC(=O)O[C@@H]1C[C@H]2C(C)(C)CCC[C@]2(C)C2=C1C(=O)C(C(C)C)=C(O)C2=O was tested, and the “inhibition zone (IZ)” value (Bacillus subtilis [2]) was greater than 7 mm, the “inhibition zone (IZ)” value (Escherichia coli) was “inactive” and the “inhibition zone (IZ)” value (Proteus mirabilis) was “inactive”. The “inhibition zone (IZ)” value (Klebsiella pneumoniae) was “inactive”, the “inhibition zone (IZ)” value (Pseudomonas aeruginosa) was “inactive” and the “inhibition zone (IZ)” value (Candida albicans) was “inactive”. It also gave an MIC (Staphylococcus aureus [7]) of 10 µg/mL (≈ 26.7 µM), an MIC [8] of 6 µg/mL (≈ 16 µM) and an MIC (Bacillus subtilis [3]) of 3 µg/mL (≈ 8.01 µM). The “inhibition zone (IZ)” value (Staphylococcus aureus [4]) was greater than 7 mm, the “inhibition zone (IZ)” value [5] was greater than 7 mm and the “inhibition zone (IZ)” value (Enterococcus faecalis [6]) was “inactive”.
With CC(C)C1=C(O)C(=O)C2=C(C1=O)[C@H](O)C[C@H]1C(C)(C)CCC[C@]21C [HORMINONE] the “inhibition zone (IZ)” value (Bacillus subtilis [2]) was greater than 7 mm, the “inhibition zone (IZ)” value (Escherichia coli) was “inactive” and the “inhibition zone (IZ)” value (Proteus mirabilis) was “inactive”. The “inhibition zone (IZ)” value (Klebsiella pneumoniae) was “inactive”, the “inhibition zone (IZ)” value (Pseudomonas aeruginosa) was “inactive” and the “inhibition zone (IZ)” value (Candida albicans) was “inactive”. For the same compound, the MIC (Staphylococcus aureus [7]) was 6.5 µg/mL (≈ 19.6 µM), the MIC [8] was 1.5 µg/mL (≈ 4.51 µM) and the MIC (Enterococcus faecalis [9]) was 14 µg/mL (≈ 42.1 µM). For the same compound, the MIC (Bacillus subtilis [3]) was 1.5 µg/mL (≈ 4.51 µM), the “inhibition zone (IZ)” value (Staphylococcus aureus [4]) was greater than 7 mm and the “inhibition zone (IZ)” value [5] was greater than 7 mm. For the same compound, the “inhibition zone (IZ)” value (Enterococcus faecalis [6]) was greater than 7 mm.
